One block for each molecule: values may come before it.
Experiments:
[1] = Gelation of liquid anaesthetics by gelators (heat-cool cycles, inversion); assay type: physicochemical
Experimental: […] The solubility of the gelator at room temperature was observed by visual inspection, and samples subjected to a series of heat-cool cycles (hot ˜60° C., cold ˜5° C.) until solubility of the gelator was complete (or ceased to improve) and a clear gel was formed on cooling. A final heating cycle was carried out and the samples allowed to cool slowly to room temperature (cooling rate uncontrolled). […] Further inspection was carried out after 24 hours, and no difference in results was observed. On storage, sealed samples remain gelled for at least 12 months.
A series of gelators were investigated with chain lengths […] corresponding to gelators G3-G8.

[2] = Release into carrier gas, testing chamber 1 (60 ml glass jar, anaesthetic monitor); assay type: physicochemical; conditions: for Sevo % @ 30 s / time to 0% Sevo/s: HPFP only, No N2 flow
Experimental: Specifically, a 60 ml glass jar fitted with septum, N2 inlet and 1 ml syringe (open to air). Typically tests used a 3 ml sample or equivalent with respect to anaesthetic content. Headspace concentrations were sampled from gas flow out (no recirculation) and measured with a standard anaesthetic monitor using a balloon to provide a nitrogen atmosphere or with or 2 L min^−1 N2 passed over or bubbled through sample;
The formulations described in Tables 1-4 were tested using testing chamber 1, the experimental set-up for which is described in FIG. 1a, by addition of an appropriate quantity of formulation to a 60 ml glass jar fitted with septum, N2 inlet and (needle free) 1 ml syringe (open to air) via a plastic tube from within which the outflow gas was continuously sampled and monitored for anaesthetic concentration. Typically a 3 ml sample was used, or an equivalent amount with respect to anaesthetic content. A balloon was used to provide a nitrogen atmosphere with no flow-through, or a continuous flow of nitrogen as a carrier gas was passed over or bubbled through the sample at a controlled flow-rate. Headspace fluorocarbon concentrations were sampled from gas outflow (no recirculation) and measured using a standard anaesthetic monitor (Capnomac Ultima, Datex Instrumentarium Inc., Heslinki, Finland), monitoring on either sevoflurane or isoflurane settings, depending on the anaesthetic in the formulation.

[3] = test system: reaction to a standard surgical stimulus (skin incision); conditions: average adult male at age 40 years; 1 atmosphere; cited from earlier work
[4] = 1 wt % gelator after 2x heat-cool cycling
[5] = 1st value column (amount equivalent to J1)
[6] = 3rd value column (amount equivalent to J5)

gelation of sevoflurane at lower gelator concentration ([1]; 0.1 wt % gelator): without success
Gel state of anaesthetic: Desfluorane [1, 4]: Yes
Gel state of anaesthetic: Isoflurane [1, 4]: No^†
Gel state of anaesthetic: Sevoflurane [1, 4]: Good gels and Yes
gel state of isoflurane ([1]; 1.5 wt % gelator): partially gelled
Structure (SMILES): CC(C)OC(=O)[C@@H](O)[C@H](O)CCCCCCCC[C@@H](O)[C@H](O)C(=O)OC(C)C (racemic) [G4]
gel state of isoflurane ([1]; 2, 3, and 5 wt % gelator): gels and stable isoflurane gels were obtained

Structure (SMILES): FC(C(F)C(F)(F)C(F)(F)F)C(F)(F)F (stereo not shown) [HPFP, 2H, 3H-perfluoropentane]
Time to 0% sevoflurane/s ([2]; 2 l min−1 N2 Over sample, 3 ml HPFP): 220 s
sevoflurane % @ 30 s ([2]; 2 l min−1 N2 Over sample, 3 ml HPFP, monitored as sevoflurane): 1.6%
Time to 0% sevoflurane/s ([2]; 2 l min−1 N2 through sample, 3 ml HPFP): <220 s
Sevo % @ 30 s [2, 5]: 1.9%
time to 0% Sevo/s [2, 5]: 135 s
Sevo % @ 30 s ([2]; 2nd value column (equivalent formulation unclear)): 2.0%
time to 0% Sevo/s ([2]; 2nd value column): 140 s
Sevo % @ 30 s [2, 6]: 2.8%
time to 0% Sevo/s [2, 6]: 335 s
Sevo % @ 30 s ([2]; 4th value column (equivalent formulation unclear)): 2.9%
time to 0% Sevo/s ([2]; 4th value column): 900 s

Structure (SMILES): FC(F)OC(F)C(F)(F)F (stereo not shown) [desflurane]
MAC value of 1 (release level) [3]: 6 volume %

Structure (SMILES): FC(F)OC(F)(F)C(F)Cl (stereo not shown) [enflurane]
MAC value of 1 (release level) [3]: 1.6 volume %

Structure (SMILES): FC(F)(F)C(Cl)Br (stereo not shown) [halothane]
MAC value of 1 (release level) [3]: 0.76 volume %

Structure (SMILES): FC(F)OC(Cl)C(F)(F)F (stereo not shown) [isoflurane]
MAC value of 1 (release level) [3]: 1.2 volume %

time of drop to zero anaesthetic concentration ([2]; 3 ml sevoflurane, 2 L min^−1): 15 to 16 min
plateau sevoflurane concentration in carrier gas ([2]; 3 ml sevoflurane, 2 L min^−1 carrier gas): ~13%
anaesthetic concentration in the carrier gas outflow stream ([2]; first 10 minutes, 3 ml sevoflurane, 2 L min^−1 through headspace): 13-15%
Structure (SMILES): FCOC(C(F)(F)F)C(F)(F)F [sevoflurane]
MAC value of 1 (release level) [3]: 2 volume %
